{"source": "PubChem BioAssay AID330", "about": "(DTP/NCI, 2004)", "system": "P388 leukemia ip, CD2F1 mice, survival T/C", "assay": "NCI In Vivo Anticancer Drug Screen. Data for tumor model P388 Leukemia (intraperitoneal) in CD2F1 (CDF1) mice", "conditions": "endpoint: median survival time, higher = longer survival", "procedure,_shortened": "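Mice carrying the transplanted tumor received test compound or vehicle. Survival was recorded in each group, and the value is the treated-group measurement divided by that of the vehicle-treated control group.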", "key": {"[1]": {"conditions": "dose: 25.0 mg/kg/injection, schedule: Q01DX009 (ip), vehicle: saline with Tween-80"}, "[2]": {"conditions": "dose: 50.0 mg/kg/injection, schedule: Q01DX009 (ip), vehicle: saline with Tween-80"}, "[3]": {"conditions": "dose: 100.0 mg/kg/injection, schedule: Q01DX009 (ip), vehicle: saline with Tween-80"}, "[4]": {"conditions": "dose: 200.0 mg/kg/injection, schedule: Q01DX009 (ip), vehicle: saline with Tween-80"}, "[5]": {"conditions": "dose: 12.5 mg/kg/injection, schedule: Q01DX009 (ip), vehicle: saline with Tween-80"}, "[6]": {"conditions": "dose: 60.0 mg/kg/injection, schedule: Q01DX005 (ip), vehicle: Klucel (hydroxypropylcellulose) (HPC)"}, "[7]": {"conditions": "dose: 120.0 mg/kg/injection, schedule: Q01DX005 (ip), vehicle: Klucel (hydroxypropylcellulose) (HPC)"}, "[8]": {"conditions": "dose: 240.0 mg/kg/injection, schedule: Q01DX005 (ip), vehicle: Klucel (hydroxypropylcellulose) (HPC)"}}, "note": "“And” between values parts separate entries of the source, which are not always exact repeats. Equal values may be shown once. Toxic doses and inconclusive results are not listed."}
{"compound": "COC(=O)c1c(C(N)=O)c(C)n(NC(=O)c2ccccc2)c1C", "values": [{"measurement": "T/C", "setting": "dose: 60.0 mg/kg/injection, schedule: Q01DX005 (ip), vehicle: saline with Tween-80", "value": "95 % of control"}, {"measurement": "T/C", "setting": "dose: 120.0 mg/kg/injection, schedule: Q01DX005 (ip), vehicle: saline with Tween-80", "value": "93 % of control"}, {"measurement": "T/C", "setting": "dose: 240.0 mg/kg/injection, schedule: Q01DX005 (ip), vehicle: saline with Tween-80", "value": "94 % of control"}]}
{"compound": "CC1CC[N-]CC1.CC1CC[N-]CC1.CC1CC[N-]CC1.CC1CC[N-]CC1.[Cl][Rh][Cl]", "values": [{"measurement": "T/C", "setting": "[1]", "value": "104 % of control"}, {"measurement": "T/C", "setting": "[2]", "value": "104 % of control"}]}
{"compound": "CC1=NN(C(=O)c2ccncc2)C(=O)C1N=Nc1ccc([N+](=O)[O-])cc1Cl", "note": "(configuration not stated)", "values": [{"measurement": "T/C", "setting": "[2]", "value": "99 % of control"}, {"measurement": "T/C", "setting": "[3]", "value": "96 % of control"}, {"measurement": "T/C", "setting": "[4]", "value": "104 % of control"}]}
{"compound": "SCc1ccccc1.[Cu+2]", "values": [{"measurement": "T/C", "setting": "dose: 6.25 mg/kg/injection, schedule: Q01DX009 (ip), vehicle: saline with Tween-80", "value": "99 % of control"}, {"measurement": "T/C", "setting": "[5]", "value": "91 % of control"}, {"measurement": "T/C", "setting": "[1]", "value": "97 % of control"}]}
{"compound": "Cc1cc(NC(=O)CSCC(=O)O)no1", "values": [{"measurement": "T/C", "setting": "[6]", "value": "98 % of control"}, {"measurement": "T/C", "setting": "[7]", "value": "101 % of control"}, {"measurement": "T/C", "setting": "[8]", "value": "94 % of control"}]}
{"compound": "C#CCC(N)C(=O)O", "note": "(configuration not stated)", "values": [{"measurement": "T/C", "setting": "dose: 12.5 mg/kg/injection, schedule: Q01DX005 (ip), vehicle: saline", "value": "107 % of control"}, {"measurement": "T/C", "setting": "dose: 25.0 mg/kg/injection, schedule: Q01DX005 (ip), vehicle: saline", "value": "111 % of control"}, {"measurement": "T/C", "setting": "dose: 50.0 mg/kg/injection, schedule: Q01DX005 (ip), vehicle: saline", "value": "100 % of control and 106 % of control"}, {"measurement": "T/C", "setting": "dose: 100.0 mg/kg/injection, schedule: Q01DX005 (ip), vehicle: saline", "value": "108 % of control"}]}
{"compound": "c1ccc(C2=NC(=c3ccc(=C4N=C(c5ccccc5)C(c5ccccc5)=N4)cc3)N=C2c2ccccc2)cc1", "values": [{"measurement": "T/C", "setting": "[6]", "value": "90 % of control"}, {"measurement": "T/C", "setting": "[7]", "value": "90 % of control"}, {"measurement": "T/C", "setting": "[8]", "value": "100 % of control"}]}
{"compound": "CN1CCN(S(=O)(=O)c2cnccc2N2CCN(CCO)CC2)CC1", "values": [{"measurement": "T/C", "setting": "dose: 50.0 mg/kg/injection, schedule: Q01DX009 (ip), vehicle: saline", "value": "108 % of control"}, {"measurement": "T/C", "setting": "dose: 100.0 mg/kg/injection, schedule: Q01DX009 (ip), vehicle: saline", "value": "97 % of control"}, {"measurement": "T/C", "setting": "dose: 200.0 mg/kg/injection, schedule: Q01DX009 (ip), vehicle: saline", "value": "97 % of control"}]}
{"compound": "CCSC(=NC)Nc1ccc(Oc2ccc(Cl)cc2)cc1", "values": [{"measurement": "T/C", "setting": "dose: 12.5 mg/kg/injection, schedule: Q01DX005 (ip), vehicle: Klucel (hydroxypropylcellulose) (HPC)", "value": "101 % of control and 102 % of control"}, {"measurement": "T/C", "setting": "dose: 25.0 mg/kg/injection, schedule: Q01DX005 (ip), vehicle: Klucel (hydroxypropylcellulose) (HPC)", "value": "105 % of control and 106 % of control"}, {"measurement": "T/C", "setting": "dose: 50.0 mg/kg/injection, schedule: Q01DX005 (ip), vehicle: Klucel (hydroxypropylcellulose) (HPC)", "value": "102 % of control and 109 % of control and 123 % of control"}, {"measurement": "T/C", "setting": "dose: 100.0 mg/kg/injection, schedule: Q01DX005 (ip), vehicle: Klucel (hydroxypropylcellulose) (HPC)", "value": "100 % of control and 106 % of control and 107 % of control"}]}
{"compound": "CCN(CC)CCNc1ccc(C)c2sc3c(N)cccc3c(=O)c12", "values": [{"measurement": "T/C", "setting": "[2]", "value": "100 % of control"}, {"measurement": "T/C", "setting": "[3]", "value": "113 % of control"}, {"measurement": "T/C", "setting": "[4]", "value": "123 % of control"}]}
{"compound": "CCOC(=O)C(C)c1nnc(-c2ccc(OC)cc2)[nH]c1=O", "note": "(configuration not stated)", "values": [{"measurement": "T/C", "setting": "dose: 50.0 mg/kg/injection, schedule: Q01DX009 (ip), vehicle: Klucel (hydroxypropylcellulose) (HPC)", "value": "94 % of control"}, {"measurement": "T/C", "setting": "dose: 100.0 mg/kg/injection, schedule: Q01DX009 (ip), vehicle: Klucel (hydroxypropylcellulose) (HPC)", "value": "97 % of control"}, {"measurement": "T/C", "setting": "dose: 200.0 mg/kg/injection, schedule: Q01DX009 (ip), vehicle: Klucel (hydroxypropylcellulose) (HPC)", "value": "99 % of control"}]}
{"compound": "C=C1C(=O)O[C@H]2CCC[C@@]12C", "values": [{"measurement": "T/C", "setting": "dose: 100.0 mg/kg/injection, schedule: Q01DX001 (ip), vehicle: saline with Tween-80", "value": "103 % of control"}, {"measurement": "T/C", "setting": "dose: 200.0 mg/kg/injection, schedule: Q01DX001 (ip), vehicle: saline with Tween-80", "value": "106 % of control"}, {"measurement": "T/C", "setting": "dose: 400.0 mg/kg/injection, schedule: Q01DX001 (ip), vehicle: saline with Tween-80", "value": "113 % of control"}]}
{"compound": "CN(C)c1ccc(/C=C2/CCC2=O)cc1", "values": [{"measurement": "T/C", "setting": "dose: 100.0 mg/kg/injection, schedule: Q04DX003 (ip), vehicle: Klucel (hydroxypropylcellulose) (HPC)", "value": "96 % of control"}, {"measurement": "T/C", "setting": "dose: 200.0 mg/kg/injection, schedule: Q04DX003 (ip), vehicle: Klucel (hydroxypropylcellulose) (HPC)", "value": "97 % of control"}, {"measurement": "T/C", "setting": "dose: 400.0 mg/kg/injection, schedule: Q04DX003 (ip), vehicle: Klucel (hydroxypropylcellulose) (HPC)", "value": "95 % of control"}]}
{"compound": "O=C1c2cccc3cc([N+](=O)[O-])cc(c23)C(=O)N1CCN1CCCC1", "values": [{"measurement": "T/C", "setting": "dose: 1.56 mg/kg/injection, schedule: Q01DX009 (ip), vehicle: saline with Tween-80", "value": "118 % of control"}, {"measurement": "T/C", "setting": "[5]", "value": "150 % of control"}]}
